Patent publication US20250366503A1, “NOVEL GLUCOPYRANOSIDE COMPOSITIONS FOR SWEETNESS ENHANCEMENT” (International Flavors & Fragrances Inc., priority 2022, published 2025)

Experiment: Sweetness enhancement of sucrose by isolated compounds (flavor profile)
Conditions: for Flavor Profile: 6% sucrose in water; for Enhancement of the sweetness of sweetness modifiers: general statement; for Sweetness and sugary mouthfeel enhancement: summary statement
Method: A sucrose solution (6%) was prepared in water and used as the base solution. Sucrose solutions of lipedoside B-IIIb, ligurobustoside E, ligurobustoside C, CPD5, ligurobustoside K ligurobustoside I and CPD6 were each prepared at 0.1-2 ppm. Flavor profiles of the sucrose solutions with added lipedoside B-IIIb, ligurobustoside E, ligurobustoside C, CPD5, ligurobustoside K and CPD6 are reported in the following: […]

Molecule | Flavor Profile (compound 2 ppm) | Enhancement of the sweetness of sweetness modifiers | Sweetness and sugary mouthfeel enhancement | Flavor Profile (compound 0.1 ppm) | Flavor Profile (compound 1 ppm)
C=CC(C)(CCC=C(C)C)O[C@@H]1O[C@H](CO)[C@@H](OC(=O)/C=C/c2ccc(O)c(O)c2)[C@H](O[C@@H]2O[C@@H](C)[C@H](O)[C@@H](O)[C@H]2O)[C@H]1O (stereo partly drawn) [CPD5, (2R,3R,4R,5R,6S)-6-((3,7-dimethylocta-1,6-dien-3-yl)oxy)-5-hydroxy-2-(hydroxymethyl)-4-(((2S,3R,4R,5R,6S)-3,4,5-trihydroxy-6-methyltetrahydro-2H-pyran-2-yl)oxy)tetrahydro-2H-pyran-3-yl (E)-3-(3,4-dihydroxyphenyl)acrylate] | Moderate sweetness and mouthfeel enhancement | enhance the sweetness of sweetness modifiers without undesirable off-notes | – | – | –
CC(C)=CC(=O)/C=C(\C)CCO[C@@H]1O[C@H](CO)[C@@H](OC(=O)/C=C/c2ccc(O)cc2)[C@H](O[C@@H]2O[C@@H](C)[C@H](O)[C@@H](O)[C@H]2O)[C@H]1O [CPD6, (2R,3R,4R,5R,6R)-6-(((E)-3,7-dimethyl-5-oxoocta-3,6-dien-1-yl)oxy)-5-hydroxy-2-(hydroxymethyl)-4-(((2S,3R,4R,5R,6S)-3,4,5-trihydroxy-6-methyltetrahydro-2H-pyran-2-yl)oxy)tetrahydro-2H-pyran-3-yl (E)-3-(4-hydroxyphenyl)acrylate] | Weak lingering sweetness and mouthfeel enhancement | – | mild sweetness and sugary mouthfeel enhancement | – | –
CC(C)=CCC/C(C)=C/CO[C@@H]1O[C@H](CO)[C@@H](OC(=O)/C=C/c2ccc(O)cc2)[C@H](O[C@@H]2O[C@@H](C)[C@H](O)[C@@H](O)[C@H]2O)[C@H]1O [Ligurobustoside C, ligurobustoside C] | Some upfront sweetness and mouthfeel enhancement | enhance the sweetness of sweetness modifiers without undesirable off-notes | – | – | –
CC(C)=CCC/C(C)=C/CO[C@@H]1O[C@H](COC(=O)/C=C/c2ccc(O)cc2)[C@@H](O)[C@H](O[C@@H]2O[C@@H](C)[C@H](O)[C@@H](O)[C@H]2O)[C@H]1O [Ligurobustoside E, ligurobustoside E] | – | enhance the sweetness of sweetness modifiers without undesirable off-notes | particularly strong sweetness and sugary mouthfeel enhancement | Sweetness enhancement, lingering sweetness | Upfront sweetness, lingering sweetness
C/C(=C\CO[C@@H]1O[C@H](CO)[C@@H](OC(=O)/C=C/c2ccc(O)cc2)[C@H](O[C@@H]2O[C@@H](C)[C@H](O)[C@@H](O)[C@H]2O)[C@H]1O)C/C=C\C(C)(C)O [ligurobustoside I] | Weak sweetness and mouthfeel enhancement | – | mild sweetness and sugary mouthfeel enhancement | – | –
ligurobustoside K | Weak sweetness and mouthfeel enhancement | – | mild sweetness and sugary mouthfeel enhancement | – | –
lipedoside B-IIIb | Strong upfront sweetness and sugary mouthfeel | enhance the sweetness of sweetness modifiers without undesirable off-notes | particularly strong sweetness and sugary mouthfeel enhancement | Slight sweetness enhancement, lingering sweetness | Sweetness enhancement, lingering sweetness
